According to US20240217966A1, “PHARMACEUTICAL COMPOSITION CONTAINING GLP-1 RECEPTOR AGONIST HAVING FUSED RING” (Shionogi & Co., Ltd., priority 2021, published 2024):

Target: T1, Human GLP-1 receptor (Homo sapiens, UniProt P43220)
T1 construct: expressed in transfected cells
Experiment: Measurement of GLP-1 receptor agonist activity (cAMP assay)
Type: cell-based
Conditions: for Emax: CHO-K1, hGLP-1R/CHO-K1 cells, cAMP, 100% = human GLP-1 (7-36) at 2 nM, 0% = DMSO only, read-out: Emax(%); for EC50: hGLP-1R/CHO-K1 cells, cAMP increase, 37° C. 1 hour
Experimental: Test Example 1: (Measurement of GLP-1 Receptor Agonist Activity)
Human GLP-1 receptor stably expressing cells (hGLP-1R/CHO-K1 cells) are cultured in an α-MEM medium (Sigma) containing 10% FBS (Hyclone), 2% GlutaMAX (Gibco), 1% G418 (Nacalai Tesque), and 1% Penicillin-Streptomycin Mixed Solution (Sigma) at 37° C. under 5% CO2 conditions, and recovered by treating a 10 fold diluted 5.0 g/l-trypsin/5.3 mmol/l-EDTA solution (Nacalai Tesque) and cryopreserved.
A DMSO solution containing the compound of the present invention or human GLP-1 (7-36) (Phoenix Pharmaceuticals) is dispensed into a 384-well microplate (Greiner) at 62.5 nL/well, and in addition, 400 μM Forskolin (Nacalai Tesque) is dispensed therein at 7.5 nL/well. Subsequently, the frozen GLP-1 R/CHO-K1 cells are thawed in a thermostatic bath at 37° C., suspended in HBSS buffer (GIBCO) containing 0.1% BSA (Sigma), 20 mM HEPES (GIBCO), 0.1 mM IBMX (Sigma), and 0.2 mM RO20-1724 (Calbiochem) at 2×10^4 cells/mL, and the cell suspension is added at 6 μL/well. The solution was incubated at 37° C. for 1 hour and intracellular cAMP concentration is measured using cAMP Gs dynamic kit (Cisbio) according to the protocol attached to the product. Specifically, cAMP-d2 and Anti-cAMP-Cryptate are each added in an amount of 3 μL/well, the mixture is incubated at room temperature for 1 hour, and time-resolved fluorescence is measured using PHERAstar (BMG Labtech).
The dilution concentration or the dilution solvent are changed as necessary.
The compounds of the present invention were tested essentially as described above.

T1 sequence (P43220 24-463): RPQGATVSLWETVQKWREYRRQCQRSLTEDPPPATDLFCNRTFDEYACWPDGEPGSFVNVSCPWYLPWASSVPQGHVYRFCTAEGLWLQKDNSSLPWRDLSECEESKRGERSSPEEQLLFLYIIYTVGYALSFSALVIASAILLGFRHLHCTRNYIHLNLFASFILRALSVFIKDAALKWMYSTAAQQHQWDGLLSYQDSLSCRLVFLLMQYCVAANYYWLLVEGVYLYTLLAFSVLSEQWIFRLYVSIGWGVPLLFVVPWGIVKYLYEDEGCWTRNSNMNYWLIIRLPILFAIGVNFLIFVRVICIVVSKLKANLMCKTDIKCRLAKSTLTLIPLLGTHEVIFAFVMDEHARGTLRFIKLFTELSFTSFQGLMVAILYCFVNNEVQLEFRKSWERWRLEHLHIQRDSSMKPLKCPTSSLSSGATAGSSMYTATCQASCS

Emax | EC50 | SMILES
114% | 63.9 nM | Cn1cc(COc2cc3c(cc2C(F)(F)F)CCN(Cc2nc4ccc(C(=O)O)cc4n2C[C@@H]2CCO2)C3)cn1 [Compound I-071]
127% | 12.6 nM | Cn1nnc2cc(COc3cc4c(cc3C(F)(F)F)CCN(Cc3nc5ccc(C(=O)O)cc5n3C[C@@H]3CCO3)C4)ccc21 [Compound I-072]
100% | 40 nM | O=C(O)c1ccc2nc(CN3CCc4cc(C(F)(F)F)c(OCc5ccc6c(c5)CCC6)cc4C3)n(C[C@@H]3CCO3)c2c1 [Compound I-074]
108% | 1.59 nM | O=C(O)c1ccc2nc(Cc3ccc4nc(C(F)(F)F)c(OCc5ccc(Cl)cc5F)nc4c3)n(C[C@@H]3CCO3)c2c1 [Compound I-076]
112% | 28.6 nM | O=C(O)c1ccc2nc(CN3CCc4cc(C(F)(F)F)c(OCc5ccc(Cl)cc5F)cc4C3)n(C[C@@H]3CCO3)c2c1Cl [Compound I-078]
103% | 6.8 nM | O=C(O)c1ccc2nc(CN3CCc4cc(C(F)(F)F)c(OCc5ccc(F)cc5)cc4C3)n(C[C@@H]3CCO3)c2c1 [Compound I-079]
103% | 3.89 nM | O=C(O)c1ccc2nc(CN3CCc4cc(C(F)(F)F)c(OCc5ccc(Cl)cc5)cc4C3)n(C[C@@H]3CCO3)c2c1 [Compound I-080]
101% | 7.66 nM | O=C(O)c1ccc2nc(CN3CCc4cc(C(F)(F)F)c(OCc5ccc(C(F)F)cc5)cc4C3)n(C[C@@H]3CCO3)c2c1 [Compound I-081]
103% | 2.32 nM | O=C(O)c1ccc2nc(CN3CCc4cc(C(F)(F)F)c(OCc5ccc(OC(F)F)cc5)cc4C3)n(C[C@@H]3CCO3)c2c1 [Compound I-082]
93% | 21.4 nM | O=C(O)c1ccc2nc(CN3CCc4cc(C(F)(F)F)c(OCc5ccc(C(F)(F)F)cc5)cc4C3)n(C[C@@H]3CCO3)c2c1 [Compound I-083]
106% | 91.9 nM | O=C(O)c1ccc2nc(CN3CCc4cc(C(F)(F)F)c(OCc5ccc(OC(F)(F)F)cc5)cc4C3)n(C[C@@H]3CCO3)c2c1 [Compound I-084]
111% | 4.47 nM | Cc1ccc(COc2cc3c(cc2C(F)(F)F)CCN(Cc2nc4ccc(C(=O)O)cc4n2C[C@@H]2CCO2)C3)cc1 [Compound I-085]

Second part, the compound before the results:

SMILES | Emax | EC50
O=C(O)c1cc(Cl)c2nc(CN3CCc4cc(C(F)(F)F)c(OCc5ccc(Cl)cc5F)cc4C3)n(C[C@@H]3CCO3)c2c1 [Compound I-061] | 113% | 1.56 nM
O=C(O)c1ccc2nc(CN3CCc4nc(C(F)(F)F)c(OCc5ccc(Cl)cc5F)cc4C3)n(C[C@@H]3CCO3)c2c1 [Compound I-062] | 98.3% | 11.6 nM
O=C(O)c1ccc2nc(CN3CCc4cc(C(F)(F)F)c(OCc5ccc(Cl)cc5F)cc4C3)n(CCOC(F)F)c2c1 [Compound I-063] | 128% | 98.1 nM
O=C(O)c1ccc2nc(CN3CCc4cc(C(F)(F)F)c(OCc5cc(F)c(Cl)cc5F)cc4C3)n(C[C@@H]3CCO3)c2c1 [Compound I-064] | 102% | 5.74 nM
Fc1cc(Cl)ccc1COc1cc2c(cc1C(F)(F)F)CCN(Cc1nc3ccc(-c4nnn[nH]4)cc3n1C[C@@H]1CCO1)C2 [Compound I-065] | 116% | 9.82 nM
O=C(O)c1ccc2nc(CN3CCc4cc(C(F)(F)F)c(OCc5ccc(Cl)cn5)cc4C3)n(C[C@@H]3CCO3)c2c1 [Compound I-067] | 130% | 3.33 nM
O=C(O)c1ccc2nc(CN3CCc4cc(C(F)(F)F)c(OCc5ncc(Cl)cc5F)cc4C3)n(C[C@@H]3CCO3)c2c1 [Compound I-068] | 114% | 3.54 nM
Cn1ccc(COc2cc3c(cc2C(F)(F)F)CCN(Cc2nc4ccc(C(=O)O)cc4n2C[C@@H]2CCO2)C3)n1 [Compound I-069] | 116% | 7.28 nM
Cc1cc(COc2cc3c(cc2C(F)(F)F)CCN(Cc2nc4ccc(C(=O)O)cc4n2C[C@@H]2CCO2)C3)no1 [Compound I-070] | 119% | 23.4 nM
